{"source": "ChEMBL document CHEMBL6083277", "about": "“Discovery of SZJK-0421: A Novel Potent, Low Toxicity, Selective Second Generation of CRM1 Inhibitor for the Treatment of Both Hematological and Solid Tumors” (J Med Chem, 2024)", "key": {"MM1.S [1]": {"system": "MM1.S", "assay": "Antiproliferative activity against human MM1.S cells assessed as inhibition of cell growth incubated for 72 hrs by celltiter-glo assay", "assay_type": "functional, cell-based"}, "[2]": {"assay": "Antiproliferative activity against human ARP-1 cells assessed as inhibition of cell growth incubated for 72 hrs by celltiter-glo assay", "assay_type": "functional, cell-based", "settings": "ARP-1, 72 h"}, "LAMA-84": {"system": "LAMA-84", "assay": "Antiproliferative activity against human LAMA-84 cells assessed as inhibition of cell growth incubated for 72 hrs by celltiter-glo assay", "assay_type": "functional, cell-based", "settings": "LAMA-84, 72 h"}, "MV4-11": {"system": "MV4-11", "assay": "Antiproliferative activity against human MV4-11 cells assessed as inhibition of cell growth incubated for 72 hrs by celltiter-glo assay", "assay_type": "functional, cell-based", "settings": "MV4-11, 72 h"}, "MOLM-13": {"system": "MOLM-13", "assay": "Antiproliferative activity against human MOLM-13 cells assessed as inhibition of cell growth incubated for 72 hrs by celltiter-glo assay", "assay_type": "functional, cell-based", "settings": "MOLM-13, 72 h"}, "HCT-116": {"system": "HCT-116", "assay": "Antiproliferative activity against human HCT-116 cells assessed as inhibition of cell growth incubated for 72 hrs by celltiter-glo assay", "assay_type": "functional, cell-based", "settings": "HCT-116, 72 h"}, "SW872": {"system": "SW872", "assay": "Antiproliferative activity against human SW872 cells assessed as inhibition of cell growth incubated for 72 hrs by celltiter-glo assay", "assay_type": "functional, cell-based", "settings": "SW872, 72 h"}, "MM1.S [3]": {"system": "MM1.S", "assay": "Induction of apoptosis in human MM1.S cells assessed as increase in cleaved caspase level at 0.5 to 1 uM incubated for 48 hrs by Western blot analysis", "assay_type": "functional, cell-based", "settings": "dose 0.5-1 µM"}, "MM1.S [4]": {"system": "MM1.S", "assay": "Induction of apoptosis in human MM1.S cells assessed as increase in p53 level at 0.5 to 1 uM incubated for 48 hrs by Western blot analysis", "assay_type": "functional, cell-based", "settings": "dose 0.5-1 µM"}, "[5]": {"target": "Exportin-1 (Homo sapiens) (UniProt O14980)", "sequence (O14980 whole entry)": "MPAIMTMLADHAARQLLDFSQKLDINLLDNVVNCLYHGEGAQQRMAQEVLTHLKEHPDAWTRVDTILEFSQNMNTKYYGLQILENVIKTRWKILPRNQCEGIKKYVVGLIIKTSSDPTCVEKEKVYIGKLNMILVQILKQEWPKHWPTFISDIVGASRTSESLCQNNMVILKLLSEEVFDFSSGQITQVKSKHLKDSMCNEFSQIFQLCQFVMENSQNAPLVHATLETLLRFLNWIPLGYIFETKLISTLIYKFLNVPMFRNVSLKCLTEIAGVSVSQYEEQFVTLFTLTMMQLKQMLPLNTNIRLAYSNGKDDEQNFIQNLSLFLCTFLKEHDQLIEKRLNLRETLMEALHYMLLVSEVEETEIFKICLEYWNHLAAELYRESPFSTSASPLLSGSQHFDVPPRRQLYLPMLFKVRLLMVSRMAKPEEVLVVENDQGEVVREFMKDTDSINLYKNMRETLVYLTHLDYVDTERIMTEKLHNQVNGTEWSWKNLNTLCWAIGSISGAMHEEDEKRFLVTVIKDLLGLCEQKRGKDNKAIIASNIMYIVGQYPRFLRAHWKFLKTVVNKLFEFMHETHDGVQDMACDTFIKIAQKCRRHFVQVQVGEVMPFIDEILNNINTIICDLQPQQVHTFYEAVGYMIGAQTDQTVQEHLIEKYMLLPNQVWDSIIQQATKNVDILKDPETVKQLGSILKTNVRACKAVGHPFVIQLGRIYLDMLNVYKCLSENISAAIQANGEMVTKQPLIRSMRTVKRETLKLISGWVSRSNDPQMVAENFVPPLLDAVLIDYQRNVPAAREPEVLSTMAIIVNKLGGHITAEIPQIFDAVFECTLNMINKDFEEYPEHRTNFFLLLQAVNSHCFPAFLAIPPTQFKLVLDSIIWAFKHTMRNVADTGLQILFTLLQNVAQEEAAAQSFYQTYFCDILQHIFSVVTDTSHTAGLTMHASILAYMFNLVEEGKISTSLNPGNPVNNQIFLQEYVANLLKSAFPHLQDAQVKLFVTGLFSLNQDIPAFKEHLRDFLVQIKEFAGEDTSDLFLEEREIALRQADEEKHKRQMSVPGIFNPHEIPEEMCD", "assay": "Inhibition of CRM1 in human MM1.S cells assessed as accumulation of p53 protein level at 0.5 to 1 uM incubated for 24 hrs by Western blot analysis", "assay_type": "cell-based", "settings": "dose 0.5-1 µM"}, "[6]": {"assay": "Metabolic stability in human liver microsomes assessed as half life measured upto 60 mins in presence of NADPH by LC/MS-MS analysis", "assay_type": "ADME, Microsome"}, "[7]": {"assay": "Metabolic stability in mouse liver microsomes assessed as half life measured upto 60 mins in presence of NADPH by LC/MS-MS analysis", "assay_type": "ADME, Microsome"}, "[8]": {"assay": "Metabolic stability in rat liver microsomes assessed as half life measured upto 60 mins in presence of NADPH by LC/MS-MS analysis", "assay_type": "ADME, Microsome"}, "[9]": {"assay": "Metabolic stability in human liver microsomes assessed as intrinsic clearance measured upto 60 mins in presence of NADPH by LC/MS-MS analysis", "assay_type": "ADME, Microsome", "settings": "read-out: CLH"}, "[10]": {"assay": "Metabolic stability in mouse liver microsomes assessed as intrinsic clearance measured upto 60 mins in presence of NADPH by LC/MS-MS analysis", "assay_type": "ADME, Microsome", "settings": "read-out: CLH"}, "[11]": {"assay": "Metabolic stability in rat liver microsomes assessed as intrinsic clearance measured upto 60 mins in presence of NADPH by LC/MS-MS analysis", "assay_type": "ADME, Microsome", "settings": "read-out: CLH"}, "[12]": {"assay": "Metabolic stability in monkey liver microsomes assessed as intrinsic clearance measured upto 60 mins in presence of NADPH by LC/MS-MS analysis", "assay_type": "ADME, Macaca mulatta, Microsome", "settings": "rhesus monkey, read-out: CLH"}, "[13]": {"assay": "Half life in male Sprague-Dawley rat at 15 mg/kg, po measured upto 30 hrs by LC-MS/MS analysis", "assay_type": "ADME, organism-based", "settings": "in vivo"}, "[14]": {"assay": "Half life in male Sprague-Dawley rat at 30 mg/kg, po measured upto 30 hrs by LC-MS/MS analysis", "assay_type": "ADME, organism-based", "settings": "in vivo"}, "[15]": {"assay": "Cmax in male Sprague-Dawley rat at 30 mg/kg, po measured upto 30 hrs by LC-MS/MS analysis", "assay_type": "ADME, organism-based", "settings": "in vivo"}, "[16]": {"assay": "Tmax in male Sprague-Dawley rat at 15 mg/kg, po measured upto 30 hrs by LC-MS/MS analysis", "assay_type": "ADME, organism-based", "settings": "in vivo"}, "[17]": {"assay": "AUC (0 to t) in male Sprague-Dawley rat at 2 mg/kg, iv measured upto 30 hrs by LC-MS/MS analysis", "assay_type": "ADME, organism-based", "settings": "in vivo"}, "[18]": {"assay": "AUC (0 to t) in male Sprague-Dawley rat at 30 mg/kg, po measured upto 30 hrs by LC-MS/MS analysis", "assay_type": "ADME, organism-based", "settings": "in vivo"}, "[19]": {"assay": "AUC (0 to infinity) in male Sprague-Dawley rat at 2 mg/kg, iv measured upto 30 hrs by LC-MS/MS analysis", "assay_type": "ADME, organism-based", "settings": "in vivo"}, "[20]": {"assay": "AUC (0 to infinity) in male Sprague-Dawley rat at 10 mg/kg, po measured upto 30 hrs by LC-MS/MS analysis", "assay_type": "ADME, organism-based", "settings": "in vivo"}, "[21]": {"assay": "AUC (0 to infinity) in male Sprague-Dawley rat at 15 mg/kg, po measured upto 30 hrs by LC-MS/MS analysis", "assay_type": "ADME, organism-based", "settings": "in vivo"}, "[22]": {"assay": "AUC (0 to infinity) in male Sprague-Dawley rat at 30 mg/kg, po measured upto 30 hrs by LC-MS/MS analysis", "assay_type": "ADME, organism-based", "settings": "in vivo"}, "[23]": {"assay": "Oral bioavailability in male Sprague-Dawley rat at 10 mg/kg measured upto 30 hrs by LC-MS/MS analysis", "assay_type": "ADME, organism-based", "settings": "in vivo"}, "[24]": {"assay": "Oral bioavailability in male Sprague-Dawley rat at 30 mg/kg measured upto 30 hrs by LC-MS/MS analysis", "assay_type": "ADME, organism-based", "settings": "in vivo"}, "[25]": {"target": "Voltage-gated inwardly rectifying potassium channel KCNH2 (Homo sapiens, UniProt Q12809)", "sequence (Q12809 whole entry)": "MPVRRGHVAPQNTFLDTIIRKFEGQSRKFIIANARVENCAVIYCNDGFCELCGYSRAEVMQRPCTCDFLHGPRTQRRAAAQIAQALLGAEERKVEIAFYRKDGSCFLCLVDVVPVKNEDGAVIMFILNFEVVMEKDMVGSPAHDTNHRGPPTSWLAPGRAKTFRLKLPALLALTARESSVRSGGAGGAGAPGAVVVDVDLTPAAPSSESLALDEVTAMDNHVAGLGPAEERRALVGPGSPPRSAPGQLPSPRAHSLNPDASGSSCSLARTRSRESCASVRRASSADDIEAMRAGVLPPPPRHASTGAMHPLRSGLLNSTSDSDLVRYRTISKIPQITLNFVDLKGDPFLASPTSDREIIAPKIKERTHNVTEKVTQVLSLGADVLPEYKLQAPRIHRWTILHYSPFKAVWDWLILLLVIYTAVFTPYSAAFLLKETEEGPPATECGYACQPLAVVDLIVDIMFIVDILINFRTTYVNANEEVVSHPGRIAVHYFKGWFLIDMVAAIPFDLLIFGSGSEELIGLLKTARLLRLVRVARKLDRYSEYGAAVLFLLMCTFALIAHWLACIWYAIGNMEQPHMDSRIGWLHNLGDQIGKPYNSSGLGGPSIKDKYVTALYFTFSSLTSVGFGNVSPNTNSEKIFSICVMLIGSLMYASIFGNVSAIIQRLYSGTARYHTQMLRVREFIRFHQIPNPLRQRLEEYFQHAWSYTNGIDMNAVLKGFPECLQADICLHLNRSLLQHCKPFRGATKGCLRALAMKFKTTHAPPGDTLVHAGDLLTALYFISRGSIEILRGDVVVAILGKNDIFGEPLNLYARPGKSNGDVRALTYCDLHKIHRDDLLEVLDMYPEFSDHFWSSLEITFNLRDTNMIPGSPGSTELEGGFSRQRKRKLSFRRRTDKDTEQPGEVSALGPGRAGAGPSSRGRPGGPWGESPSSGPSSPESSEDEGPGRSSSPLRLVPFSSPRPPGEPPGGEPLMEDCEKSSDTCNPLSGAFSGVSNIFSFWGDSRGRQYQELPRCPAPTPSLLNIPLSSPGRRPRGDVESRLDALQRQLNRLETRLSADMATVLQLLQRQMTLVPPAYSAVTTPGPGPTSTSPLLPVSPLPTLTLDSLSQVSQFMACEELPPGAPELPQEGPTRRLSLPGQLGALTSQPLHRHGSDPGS", "assay": "Inhibition of hERG in HEK293 cells", "assay_type": "toxicity, cell-based"}, "[26]": {"assay": "Cmax in male Sprague-Dawley rat plasma at 10 mg/kg, IG measured at 6 hrs by LC-MS/MS analysis", "assay_type": "ADME, organism-based", "settings": "po"}, "[27]": {"assay": "AUC in male Sprague-Dawley rat brain at 10 mg/kg, IG measured at 6 hrs by LC-MS/MS analysis", "assay_type": "ADME, organism-based", "settings": "po"}, "[28]": {"assay": "AUC in male Sprague-Dawley rat plasma at 10 mg/kg, IG measured at 6 hrs by LC-MS/MS analysis", "assay_type": "ADME, organism-based", "settings": "po"}, "[29]": {"assay": "Toxicity in BALB/c mouse assessed as weight loss at 60 mg/kg, po administered once daily for 21 days", "assay_type": "organism-based", "settings": "in vivo, 504 h, time 21 day"}, "[30]": {"assay": "Toxicity in BALB/c mouse assessed as side effect at 60 mg/kg, po administered once daily for 21 days", "assay_type": "organism-based", "settings": "in vivo, 504 h, time 21 day"}, "MM1.S [31]": {"system": "MM1.S", "assay": "Antitumor activity against human MM1.S cells xenografted in NOD-SCID mouse assessed as tumor growth inhibition at 60 mg/kg, po qd measured upto 21 days", "assay_type": "functional", "settings": "504 h, time <= 21 day, read-out: TGI"}, "ARH-77": {"system": "ARH-77", "assay": "Antitumor activity against human ARH-77 cells xenografted in NOD-SCID mouse at 15 to 60 mg/kg, po measured every 2 days for 21 days", "assay_type": "functional, organism-based", "settings": "dose 15-60 mg/kg, time 21.0 day"}, "[32]": {"assay": "Toxicity in NOD-SCID mouse assessed as appearance of large nucleus in tumor at 60 mg/kg, po measured every 2 days for 21 days by H and E staining based analysis", "assay_type": "organism-based", "settings": "in vivo, 504 h, time 21 day"}, "[33]": {"assay": "Toxicity in NOD-SCID mouse assessed as reduction in number of tumor cells at 60 mg/kg, po measured every 2 days for 21 days by H and E staining based analysis", "assay_type": "organism-based", "settings": "in vivo, 504 h, time 21 day"}, "[34]": {"assay": "Toxicity in NOD-SCID mouse assessed as reduction in cell density in tumor at 60 mg/kg, po measured every 2 days for 21 days by H and E staining based analysis", "assay_type": "organism-based", "settings": "in vivo, 504 h, time 21 day"}, "[35]": {"assay": "Toxicity in NOD-SCID mouse assessed as shortening of villi in intestine at 15 to 60 mg/kg, po measured every 2 days for 21 days by H and E staining based analysis", "assay_type": "organism-based", "settings": "in vivo, 504 h, dose 15-60 mg/kg, time 21 day"}}, "note": "The source made the active and inactive calls. The rule behind the calls is not given here."}
{"smiles": "CONC(=O)/C(=C/n1cnc(-c2cc(C(F)(F)F)cc(C(F)(F)F)c2)n1)c1cncnc1", "values": [{"measurement": "IC50", "setting": "MM1.S [1]", "result": 87.1, "unit": "nM"}, {"measurement": "IC50", "setting": "[2]", "result": 652, "unit": "nM"}, {"measurement": "IC50", "setting": "LAMA-84", "result": 1480, "unit": "nM"}, {"measurement": "IC50", "setting": "MV4-11", "result": 43.5, "unit": "nM"}, {"measurement": "IC50", "setting": "MOLM-13", "result": 478, "unit": "nM"}, {"measurement": "IC50", "setting": "HCT-116", "result": 435, "unit": "nM"}, {"measurement": "IC50", "setting": "SW872", "result": 753, "unit": "nM"}, {"measurement": "Activity", "setting": "MM1.S [3]", "result": "Active"}, {"measurement": "Activity", "setting": "MM1.S [4]", "result": "Active"}, {"measurement": "inhibition", "setting": "[5]", "result": "Active"}, {"measurement": "half-life", "setting": "[6]", "result": "> 2", "unit": "h"}, {"measurement": "half-life", "setting": "[7]", "result": "> 2", "unit": "h"}, {"measurement": "half-life", "setting": "[8]", "result": "> 2", "unit": "h"}, {"measurement": "microsomal CLint", "setting": "[9]", "result": 3.6, "unit": "µL/min/mg"}, {"measurement": "microsomal CLint", "setting": "[10]", "result": 12.6, "unit": "µL/min/mg"}, {"measurement": "microsomal CLint", "setting": "[11]", "result": 7.2, "unit": "µL/min/mg"}, {"measurement": "microsomal CLint", "setting": "[12]", "result": 8.6, "unit": "µL/min/mg"}, {"measurement": "half-life", "setting": "[13]", "result": 4, "unit": "h"}, {"measurement": "half-life", "setting": "[14]", "result": 3.6, "unit": "h"}, {"measurement": "Cmax", "setting": "[15]", "result": 844, "unit": "ng/mL"}, {"measurement": "Tmax", "setting": "[16]", "result": 0.25, "unit": "h"}, {"measurement": "AUC(0-t) at 30 h", "setting": "[17]", "result": 1300, "unit": "ng·h/mL"}, {"measurement": "AUC(0-t) at 30 h", "setting": "[18]", "result": 9000, "unit": "ng·h/mL"}, {"measurement": "AUC(0-inf)", "setting": "[19]", "result": 1490, "unit": "ng·h/mL"}, {"measurement": "AUC(0-inf)", "setting": "[20]", "result": 4180, "unit": "ng·h/mL"}, {"measurement": "AUC(0-inf)", "setting": "[21]", "result": 5830, "unit": "ng·h/mL"}, {"measurement": "AUC(0-inf)", "setting": "[22]", "result": 10400, "unit": "ng·h/mL"}, {"measurement": "bioavailability", "setting": "[23]", "result": 56, "unit": "%"}, {"measurement": "bioavailability", "setting": "[24]", "result": 46.3, "unit": "%"}, {"measurement": "IC50", "setting": "[25]", "result": 18900, "unit": "nM"}, {"measurement": "Cmax", "setting": "[26]", "result": 18.9, "unit": "ng/mL"}, {"measurement": "AUC at 6 h", "setting": "[27]", "result": 378, "unit": "ng·h/mL"}, {"measurement": "AUC at 6 h", "setting": "[28]", "result": 2480, "unit": "ng·h/mL"}, {"measurement": "Activity", "setting": "[29]", "result": "Non-toxic"}, {"measurement": "Activity", "setting": "[30]", "result": "Non-toxic"}, {"measurement": "inhibition in vivo at 60 mg/kg", "setting": "MM1.S [31]", "result": 87, "unit": "%"}, {"measurement": "Activity", "setting": "ARH-77", "result": "Active"}, {"measurement": "Activity", "setting": "[32]", "result": "Non-toxic"}, {"measurement": "Activity", "setting": "[33]", "result": "Non-toxic"}, {"measurement": "Activity", "setting": "[34]", "result": "Non-toxic"}, {"measurement": "Activity", "setting": "[35]", "result": "Non-toxic"}]}
